Several values for one entry are separate records, joined by “and”; a condition that tells them apart may be missing. Equal entries are not always repeated.
Tests used:
hM4Di [1] = target: T1, hM4Di (Homo sapiens, UniProt P08173, A203G/Y113C); experiment: [11C]clozapine PET DREADD occupancy in AAV-DREADD mice, hM4Di; settings: 0.1 mg kg-1 IP, individual values, listed as J52
T1 sequence (P08173 1-479 Y113C/A203G): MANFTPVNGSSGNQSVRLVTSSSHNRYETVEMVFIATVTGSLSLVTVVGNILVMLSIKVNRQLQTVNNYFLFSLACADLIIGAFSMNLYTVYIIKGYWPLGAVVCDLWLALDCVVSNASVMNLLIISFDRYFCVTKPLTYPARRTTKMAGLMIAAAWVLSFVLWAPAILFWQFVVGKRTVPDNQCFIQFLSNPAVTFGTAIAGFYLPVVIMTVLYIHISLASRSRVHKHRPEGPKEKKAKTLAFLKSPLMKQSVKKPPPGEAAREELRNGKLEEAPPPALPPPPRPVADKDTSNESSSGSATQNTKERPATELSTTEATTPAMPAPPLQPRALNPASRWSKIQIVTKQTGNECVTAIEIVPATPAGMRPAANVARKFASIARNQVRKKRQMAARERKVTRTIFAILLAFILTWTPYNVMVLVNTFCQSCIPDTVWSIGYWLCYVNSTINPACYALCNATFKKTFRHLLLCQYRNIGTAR
Description: Animals were anesthetized with isoflurane or a mix of ketamine/xylazine and prepped on a stereotaxic apparatus (Kopf, Germany). […] When indicated, animals were pretreated with vehicle or the indicated drug 10 min before the injection of the PET radiotracer. Total acquisition time was 60 min.
In all cases, the PET data were reconstructed and corrected for dead-time and radioactive decay. All qualitative and quantitative assessments of PET images were performed using the PMOD software environment (PMOD Technologies, Zurich Switzerland). Binding potential BPND (a relative measure of specific binding) was calculated using a reference tissue model using the cerebellum as a reference tissue in rodents. In macaques, the kinetic data were fitted to a two-tissue compartment model and the concentration of parent in plasma was used as an input function, then the volume of distribution ratios compared to cerebellum were calculated to establish BPND. In all cases, the dynamic PET images were coregistered to MRI templates and time-activity curves were generated using predefined volumes of interest (macaques) or manually drawn in rodents and the described analyses were performed. Receptor occupancy was calculated using the formula: occupancy = (BPND^0 − BPND^Drug)/BPND^0 × 100, where BPND^0 is the binding potential of the baseline condition and BPND^Drug the binding potential when the animals were pretreated with the drug.

hM4Di [2] = target: T1, hM4Di; experiment: DREADD-assisted metabolic mapping (DREAMM), [18F]FDG PET in D1-hM4Di mice; assay type: in vivo, mouse; design: 026219; host or cells: mouse brain, dopamine D1 receptor-expressing neurons (transgene); settings: 0.1 mg kg-1 IP
Description: Mice (D1-hM3Dq, D1-hM4Di or WT littermates, see above) were habituated to experimenter handling and fasted 16 h before the experiment. On the day of the experiment, mice received an IP injection of vehicle (1 ml kg^−1) and were placed back into their home cages. Ten minutes later, mice were injected (IP) with 11 MBq of 2-deoxy-2-[^18F]fluoro-D-glucose (FDG, Cardinal Health) and placed back into their home cages. After 30 min, mice were anesthetized with 1.5% isoflurane, placed on a custom-made bed of a nanoScan small animal PET/CT scanner (Mediso Medical Imaging Systems) and scanned for 20 min on a static acquisition protocol, followed by a CT scan. […] Voxel-based repeated measures with Student’s t test comparing baseline to drug were performed, and the resulting parametric images were filtered for statistically significant (p < 0.05) clusters larger than 100 contiguous voxels. All statistical parametric mapping analyses were performed using Matlab R2016 (Mathworks) and SPM12 (University College London).

DREADDs = experiment: [18F]JHU37107 PET in D1-DREADD transgenic mice; assay type: in vivo; settings: D1-DREADD mice, 0.1 mg kg-1 IP
Description: [^18F]JHU37107 was prepared via the no-carrier-added ^18F-fluorination using an FDG Nuclear Interface module (Muenster, Germany). Briefly, 4 mg precursor (8-chloro-11-(4-ethylpiperazin-1-yl)-5H-dibenzo[b,e][1,4]diazepin-2-ol) and 8 mg tris(acetonitrile)cyclopentadienylruthenium(II)hexafluorophosphate (STREM, Boston, MA) were dissolved in ethanol (0.3 mL), the solution was heated at 85 °C for 25 min and evaporated to dryness under a stream of argon gas. The residue was dissolved in DMSO (0.5 mL) and acetonitrile (0.5 mL) and the solution was added to a dry complex of [^18F]fluoride and 9 mg 1,3-bis(2,6-di-i-propylphenyl)-2-chloroimidazolium chloride (STREM). The reaction mixture was heated at 130 °C for 30 min, diluted with mixture of 0.5 mL acetonitrile, 0.5 mL water and 0.03 mL TFA and injected onto a semi-preparative HPLC column (Luna C18, 10 micron, 10 mm × 250 mm) and eluted with 23:77 (v:v) acetonitrile:water (0.1% trifluoroacetic acid) at a flow rate of 10 mL min^−1. The radioactive peak corresponding to [^18F]JHU37107 (tR = 9.9 min) was collected in a reservoir containing 50 mL of water and 3 mL aq 8.4% NaHCO3 solution. The diluted product was loaded onto a solid phase extraction cartridge (Waters Oasis HLB plus light) and rinsed with 10 mL sterile saline. The product was eluted with 1000 µL of ethanol through a sterile 0.2 μm filter into a sterile, pyrogen-free vial and 10 mL saline was added through the same filter. The final product [^18F]JHU37107 was then analyzed by analytical HPLC (Luna C18, 10 micron, 4.6 mm × 250 mm; mobile phase 23:77 (v:v) acetonitrile:water (0.1% trifluoroacetic acid), flow rate of 3 mL min^−1; […] .
Total acquisition time was 60 min.

| Structure (SMILES) | displacement of in vivo [11C]clozapine binding, hM4Di (hM4Di [1]) | brain metabolism ([18F]FDG) (hM4Di [2]) | displacement of [18F]JHU37107 PET signal (DREADDs) |
| --- | --- | --- | --- |
| CCN1CCN(C2=Nc3cc(Cl)ccc3Nc3cccc(F)c32)CC1 [JHU37152, 8-Chloro-11-(4-ethylpiperazin-1-yl)-1-fluoro-5H-dibenzo[b,e][1,4]diazepine] | -5.675 and 34.4851 and 23.8214 |  |  |
| CCN1CCN(C2=Nc3cc(Cl)ccc3Nc3c(F)cccc32)CC1 [JHU37160, 8-Chloro-11-(4-ethylpiperazin-1-yl)-4-fluoro-5H-dibenzo[b,e][1,4]diazepine] |  | increased metabolism | displaceable |

Reference: paper PMC6788984, “High-potency ligands for DREADD imaging and activation in rodents and monkeys” (Nature Communications, 2019)
